Test system: MV-4-11 cells
Test: Gene expression microarray analysis (Affymetrix PrimeView) and GSEA
Assay type: cell-based, human
Parameters: RFU PODN (11730768_x_at) / Fold change /veh PODN (11730768_x_at) / RFU LINC00158 (11744669_a_at) / Fold change /veh LINC00158 (11744669_a_at) / RFU DUSP10 (11751237_a_at) / Fold change /veh DUSP10 (11751237_a_at) / RFU ID3 (11757404_x_at) / Fold change /veh ID3 (11757404_x_at) / RFU PLEKHG5 (11737974_s_at) / Fold change /veh PLEKHG5 (11737974_s_at) / RFU LRRC4B (11730491_at) / Fold change /veh LRRC4B (11730491_at) / RFU GIMAP4 (11747438_a_at) / Fold change /veh GIMAP4 (11747438_a_at) / RFU KRT8 (11758183_x_at) / Fold change /veh KRT8 (11758183_x_at) / RFU CNN1 (11734310_a_at) / Fold change /veh CNN1 (11734310_a_at) / RFU VPS37D (11726825_at) / Fold change /veh VPS37D (11726825_at) / RFU C10orf10 (11716522_x_at) / Fold change /veh C10orf10 (11716522_x_at) / RFU KIR2DL2 /// KIR2DL4 /// KIR2DL5A /// KIR2DL5B /// KIR2DS1 /// KIR2DS2 /// KIR2DS3 /// KIR2DS4 /// KIR3DL3 /// KIR3DL3 /// KIR3DS1 (11738374_at) / Fold change /veh KIR2DL2 /// KIR2DL4 /// KIR2DL5A /// KIR2DL5B /// KIR2DS1 /// KIR2DS2 /// KIR2DS3 /// KIR2DS4 /// KIR3DL3 /// KIR3DL3 /// KIR3DS1 (11738374_at) / RFU C1QL1 (11718748_at) / Fold change /veh C1QL1 (11718748_at) / RFU TMPRSS4 (11747572_a_at) / Fold change /veh TMPRSS4 (11747572_a_at) / RFU HAMP (11756126_x_at) / Fold change /veh HAMP (11756126_x_at) / RFU RNFT2 (11725882_a_at) / Fold change /veh RNFT2 (11725882_a_at) / RFU NR4A2 (11747474_a_at) / Fold change /veh NR4A2 (11747474_a_at) / RFU ABCC12 (11746883_a_at) / Fold change /veh ABCC12 (11746883_a_at) / RFU TMEM136 (11760407_x_at) / Fold change /veh TMEM136 (11760407_x_at) / RFU CLDN22 /// WWC2 (11732394_at) / Fold change /veh CLDN22 /// WWC2 (11732394_at) / RFU HLA-DPB1 (11760878_x_at) / Fold change /veh HLA-DPB1 (11760878_x_at) / RFU SPINT1 (11716480_a_at) / Fold change /veh SPINT1 (11716480_a_at) / RFU GAP43 (11754022_s_at) / Fold change /veh GAP43 (11754022_s_at) / RFU A4GNT (11735810_at) / Fold change /veh A4GNT (11735810_at) / RFU PRB3 (11715151_x_at) / Fold change /veh PRB3 (11715151_x_at) / RFU TUBB4B (11761932_at) / Fold change /veh TUBB4B (11761932_at) / RFU CAPN14 (11732068_a_at) / Fold change /veh CAPN14 (11732068_a_at) / RFU TMCC2 (11721928_a_at) / Fold change /veh TMCC2 (11721928_a_at) / RFU IRGQ (11745062_a_at) / Fold change /veh IRGQ (11745062_a_at) / RFU FAM174B (11720279_a_at) / Fold change /veh FAM174B (11720279_a_at) / RFU TMPRSS4 (11748680_a_at) / Fold change /veh TMPRSS4 (11748680_a_at) / RFU FAM212B (11763350_a_at) / Fold change /veh FAM212B (11763350_a_at) / RFU PLEKHG5 (11743358_a_at) / Fold change /veh PLEKHG5 (11743358_a_at) / RFU ZSCAN30 (11745921_a_at) / Fold change /veh ZSCAN30 (11745921_a_at) / RFU CMKLR1 (11741424_a_at) / Fold change /veh CMKLR1 (11741424_a_at) / RFU LOC101060620 /// MAPK8IP1 (11723275_at) / Fold change /veh LOC101060620 /// MAPK8IP1 (11723275_at) / RFU SPTSSB (11747773_x_at) / Fold change /veh SPTSSB (11747773_x_at) / RFU PRSS12 (11739890_at) / Fold change /veh PRSS12 (11739890_at) / RFU BIN1 (11741810_x_at) / Fold change /veh BIN1 (11741810_x_at) / RFU WNT11 (11732464_a_at) / Fold change /veh WNT11 (11732464_a_at) / RFU C10orf10 (11716521_a_at) / Fold change /veh C10orf10 (11716521_a_at) / RFU C5orf56 (11738089_at) / Fold change /veh C5orf56 (11738089_at) / RFU CYB561 (11721691_x_at) / Fold change /veh CYB561 (11721691_x_at) / RFU ANKRD19P (11752326_a_at) / Fold change /veh ANKRD19P (11752326_a_at) / RFU OR2T12 /// OR2T33 /// OR2T8 (11738714_s_at) / Fold change /veh OR2T12 /// OR2T33 /// OR2T8 (11738714_s_at) / RFU VCAN (11748164_a_at) / Fold change /veh VCAN (11748164_a_at) / RFU JSRP1 (11732532_at) / Fold change /veh JSRP1 (11732532_at) / RFU KRTAP10-11 (11738290_x_at) / Fold change /veh KRTAP10-11 (11738290_x_at) / RFU MYO3A (11730013_a_at) / Fold change /veh MYO3A (11730013_a_at) / RFU EBF3 (11725865_a_at) / Fold change /veh EBF3 (11725865_a_at) / RFU CAMK2N1 (11719241_x_at) / Fold change /veh CAMK2N1 (11719241_x_at) / RFU C5orf56 (11738088_a_at) / Fold change /veh C5orf56 (11738088_a_at) / RFU OLFML3 (11715873_a_at) / Fold change /veh OLFML3 (11715873_a_at) / RFU LOC100653217 /// NTM (11731650_a_at) / Fold change /veh LOC100653217 /// NTM (11731650_a_at) / RFU MAPK11 (11762145_a_at) / Fold change /veh MAPK11 (11762145_a_at) / RFU FIZ1 (11724087_x_at) / Fold change /veh FIZ1 (11724087_x_at) / RFU OASL (11726364_x_at) / Fold change /veh OASL (11726364_x_at) / RFU SOX15 (11748057_x_at) / Fold change /veh SOX15 (11748057_x_at) / RFU CD79A (11719716_a_at) / Fold change /veh CD79A (11719716_a_at) / RFU HIST1H1D (11736915_at) / Fold change /veh HIST1H1D (11736915_at) / RFU CASKIN2 (11723855_a_at) / Fold change /veh CASKIN2 (11723855_a_at) / RFU LOC730098 (11760151_x_at) / Fold change /veh LOC730098 (11760151_x_at) / RFU OR4N2 (11742367_at) / Fold change /veh OR4N2 (11742367_at) / RFU PRRT2 (11749266_a_at) / Fold change /veh PRRT2 (11749266_a_at) / RFU SNX32 (11753110_a_at) / Fold change /veh SNX32 (11753110_a_at) / RFU CDHR5 (11726645_a_at) / Fold change /veh CDHR5 (11726645_a_at) / RFU RCAN1 (11760418_a_at) / Fold change /veh RCAN1 (11760418_a_at) / RFU FAM167A (11723789_a_at) / Fold change /veh FAM167A (11723789_a_at) / RFU FAM26E (11764081_at) / Fold change /veh FAM26E (11764081_at) / RFU ISYNA1 (11749810_s_at) / Fold change /veh ISYNA1 (11749810_s_at) / RFU ACY1 (11761880_at) / Fold change /veh ACY1 (11761880_at) / RFU 11764098_at / Fold change /veh 11764098_at / RFU SAMD14 (11745864_x_at) / Fold change /veh SAMD14 (11745864_x_at) / RFU NPB (11741838_a_at) / Fold change /veh NPB (11741838_a_at) / RFU TMPRSS6 (11731388_a_at) / Fold change /veh TMPRSS6 (11731388_a_at) / RFU KRTAP10-2 (11738614_at) / Fold change /veh KRTAP10-2 (11738614_at) / RFU ARHGAP8 /// PRR5-ARHGAP8 (11727945_x_at) / Fold change /veh ARHGAP8 /// PRR5-ARHGAP8 (11727945_x_at) / RFU KRTAP5-7 /// NADSYN1 (11734609_at) / Fold change /veh KRTAP5-7 /// NADSYN1 (11734609_at) / RFU RASL12 (11751679_a_at) / Fold change /veh RASL12 (11751679_a_at) / RFU CDKN2B (11736163_a_at) / Fold change /veh CDKN2B (11736163_a_at) / RFU PRF1 (11729649_at) / Fold change /veh PRF1 (11729649_at) / RFU, ZNF638 /// ZNF638-IT1 / Fold change vs veh, ZNF638 /// ZNF638-IT1 / RFU, PANK3 / Fold change vs veh, PANK3 / RFU, SH3YL1 / Fold change vs veh, SH3YL1 / RFU, ZEB2 / Fold change vs veh, ZEB2 / RFU, NRIP1 / Fold change vs veh, NRIP1 / RFU, PTTG1IP / Fold change vs veh, PTTG1IP / RFU, CAPN2 / Fold change vs veh, CAPN2 / RFU, MED14 / Fold change vs veh, MED14 / RFU, SNORA58 / Fold change vs veh, SNORA58 / RFU, C1orf63 / Fold change vs veh, C1orf63 / RFU, LRRFIP1 / Fold change vs veh, LRRFIP1 / RFU, NDUFAF7 / Fold change vs veh, NDUFAF7 / RFU, SLC12A2 / Fold change vs veh, SLC12A2 / RFU, IBTK / Fold change vs veh, IBTK / RFU, ESF1 / Fold change vs veh, ESF1 / Fold change vs veh, TMEM50B / RFU, TAOK1 / Fold change vs veh, TAOK1 / RFU, ACBD3 / Fold change vs veh, ACBD3 / RFU, TMA16 / Fold change vs veh, TMA16 / RFU, RWDD3 / Fold change vs veh, RWDD3 / RFU, BCAT1 / Fold change vs veh, BCAT1 / RFU, EDEM3 / Fold change vs veh, EDEM3 / RFU, TMEM33 / Fold change vs veh, TMEM33 / RFU, WDR75 / Fold change vs veh, WDR75 / RFU, AHCTF1 / Fold change vs veh, AHCTF1 / RFU, TFRC / Fold change vs veh, TFRC / RFU, ZDHHC17 / Fold change vs veh, ZDHHC17 / RFU, NOM1 / Fold change vs veh, NOM1 / RFU, ARL8B / Fold change vs veh, ARL8B / RFU, ZBTB11 / Fold change vs veh, ZBTB11 / RFU, TAMM41 / Fold change vs veh, TAMM41 / RFU, KIAA1704 /// LOC100996395 / Fold change vs veh, KIAA1704 /// LOC100996395 / RFU, ING1 / Fold change vs veh, ING1 / RFU, TRMT61B / Fold change vs veh, TRMT61B / RFU, FUBP3 / Fold change vs veh, FUBP3 / RFU, TP53 / Fold change vs veh, TP53 / RFU, TNKS2 / Fold change vs veh, TNKS2 / RFU, ZFP14 / Fold change vs veh, ZFP14 / RFU, ACTR2 / Fold change vs veh, ACTR2 / RFU, PPP3R1 / Fold change vs veh, PPP3R1 / RFU, PIK3R1 / Fold change vs veh, PIK3R1 / RFU, HNRNPA1 / Fold change vs veh, HNRNPA1 / RFU, RNF170 / Fold change vs veh, RNF170 / RFU, ZNF28 / Fold change vs veh, ZNF28 / RFU, RNGTT / Fold change vs veh, RNGTT / RFU, OGT / Fold change vs veh, OGT / RFU, BRD1 / Fold change vs veh, BRD1 / RFU, MARS / Fold change vs veh, MARS / RFU, ZNF655 / Fold change vs veh, ZNF655 / RFU, FAHD1 / Fold change vs veh, FAHD1 / RFU, BDP1 / Fold change vs veh, BDP1 / RFU, LRRCC1 / Fold change vs veh, LRRCC1 / RFU, ARID1A / Fold change vs veh, ARID1A / RFU, ZNF146 / Fold change vs veh, ZNF146 / RFU, ZNF330 / Fold change vs veh, ZNF330 / RFU, GPN3 / Fold change vs veh, GPN3 / RFU, C9orf123 / Fold change vs veh, C9orf123 / RFU, N4BP2L2 / Fold change vs veh, N4BP2L2 / RFU, ARFIP1 / Fold change vs veh, ARFIP1 / RFU, FAM179B / Fold change vs veh, FAM179B / RFU, BCL10 / Fold change vs veh, BCL10 / RFU, UHRF1BP1L / Fold change vs veh, UHRF1BP1L / RFU, BET1 / Fold change vs veh, BET1 / RFU, CNOT2 / Fold change vs veh, CNOT2 / RFU, ZNF268 / Fold change vs veh, ZNF268 / Fold change vs veh, ZNF507 / RFU, DGCR2 / Fold change vs veh, DGCR2 / RFU, WDSUB1 / Fold change vs veh, WDSUB1 / Fold change vs veh, HSP90B1 /// MIR3652 / RFU, ADSS / Fold change vs veh, ADSS / RFU, GK / Fold change vs veh, GK / RFU, ZNF148 / Fold change vs veh, ZNF148 / RFU, TAF9 / Fold change vs veh, TAF9 / RFU, SLC1A5 / Fold change vs veh, SLC1A5 / RFU, SLMO2 / Fold change vs veh, SLMO2 / RFU, ABCC4 / Fold change vs veh, ABCC4 / RFU, LOC101060439 /// RAP1B / Fold change vs veh, LOC101060439 /// RAP1B / RFU, RFX7 / Fold change vs veh, RFX7 / RFU, GTPBP10 / Fold change vs veh, GTPBP10 / RFU, CNEP1R1 / Fold change vs veh, CNEP1R1 / RFU, BIVM-ERCC5 /// ERCC5 / Fold change vs veh, BIVM-ERCC5 /// ERCC5 / RFU, ILF3 / Fold change vs veh, ILF3 / RFU 11762660_at / Fold change /veh 11762660_at / RFU VCAN (11757783_s_at) / Fold change /veh VCAN (11757783_s_at) / RFU DDX43 (11728927_at) / Fold change /veh DDX43 (11728927_at) / RFU KRT8 (11758188_x_at) / Fold change /veh KRT8 (11758188_x_at) / RFU NKD1 (11759106_at) / Fold change /veh NKD1 (11759106_at) / RFU SRD5A1 (11742802_a_at) / Fold change /veh SRD5A1 (11742802_a_at) / RFU TPSAB1 /// TPSB2 (11721975_s_at) / Fold change /veh TPSAB1 /// TPSB2 (11721975_s_at) / RFU GSTM3 (11746129_a_at) / Fold change /veh GSTM3 (11746129_a_at) / RFU IL23R (11737362_x_at) / Fold change /veh IL23R (11737362_x_at) / RFU TMEM51 (11727254_a_at) / Fold change /veh TMEM51 (11727254_a_at) / RFU PIWIL2 (11732686_x_at) / Fold change /veh PIWIL2 (11732686_x_at) / RFU ORM1 (11744905_x_at) / Fold change /veh ORM1 (11744905_x_at) / RFU CCDC152 (11743942_at) / Fold change /veh CCDC152 (11743942_at) / RFU ECM1 (11717891_a_at) / Fold change /veh ECM1 (11717891_a_at) / RFU IL23R (11748794_a_at) / Fold change /veh IL23R (11748794_a_at) / RFU TNFAIP8L3 (11732012_x_at) / Fold change /veh TNFAIP8L3 (11732012_x_at) / RFU MBOAT4 (11741988_at) / Fold change /veh MBOAT4 (11741988_at) / RFU 11764193_at / Fold change /veh 11764193_at / RFU TMEM53 (11763286_at) / Fold change /veh TMEM53 (11763286_at) / RFU MAGEB2 (11727129_at) / Fold change /veh MAGEB2 (11727129_at) / RFU TMEM200A (11744735_a_at) / Fold change /veh TMEM200A (11744735_a_at) / RFU CCDC152 (11751479_a_at) / Fold change /veh CCDC152 (11751479_a_at) / RFU FAM211A (11726209_a_at) / Fold change /veh FAM211A (11726209_a_at) / RFU RGS16 (11746705_a_at) / Fold change /veh RGS16 (11746705_a_at) / RFU VCAN (11755009_s_at) / Fold change /veh VCAN (11755009_s_at) / RFU RHOB (11743442_s_at) / Fold change /veh RHOB (11743442_s_at) / RFU RGS16 (11720943_a_at) / Fold change /veh RGS16 (11720943_a_at) / RFU RGS16 (11720944_at) / Fold change /veh RGS16 (11720944_at) / RFU, VPS4B / Fold change vs veh, VPS4B / RFU, CREB1 / Fold change vs veh, CREB1 / RFU, DNAJC13 / Fold change vs veh, DNAJC13 / RFU, GNAQ / Fold change vs veh, GNAQ / RFU, CDK5R1 / Fold change vs veh, CDK5R1 / RFU, ZRANB3 / Fold change vs veh, ZRANB3 / RFU, CUL4A / Fold change vs veh, CUL4A / RFU, CCNY / Fold change vs veh, CCNY / RFU, UFL1 / Fold change vs veh, UFL1 / RFU, COG3 / Fold change vs veh, COG3 / RFU, DIAPH2 / Fold change vs veh, DIAPH2 / RFU, SKA2 / Fold change vs veh, SKA2 / RFU, AFF3 / Fold change vs veh, AFF3 / RFU, LMF1 / Fold change vs veh, LMF1 / RFU, IPO11 / Fold change vs veh, IPO11 / RFU, DFFB / Fold change vs veh, DFFB / RFU, FOXP1 / Fold change vs veh, FOXP1 / RFU, CARD8 / Fold change vs veh, CARD8 / RFU, STRN3 / Fold change vs veh, STRN3 / RFU, ADK / Fold change vs veh, ADK / RFU, RASSF2 / Fold change vs veh, RASSF2 / RFU, WIPF1 / Fold change vs veh, WIPF1 / RFU, LARP1B / Fold change vs veh, LARP1B / RFU, RASA1 / Fold change vs veh, RASA1 / RFU, RB1 / Fold change vs veh, RB1 / RFU, PPFIA1 / Fold change vs veh, PPFIA1 / RFU, MAT2A / Fold change vs veh, MAT2A / RFU, CCT5 / Fold change vs veh, CCT5 / RFU, WDR92 / Fold change vs veh, WDR92 / RFU, CUX1 / Fold change vs veh, CUX1 / RFU, TTC7A / Fold change vs veh, TTC7A / RFU, TMEM135 / Fold change vs veh, TMEM135 / RFU, DEPTOR / Fold change vs veh, DEPTOR / RFU, CPM / Fold change vs veh, CPM / RFU, DNAJB6 / Fold change vs veh, DNAJB6 / RFU, CACNA2D3 / Fold change vs veh, CACNA2D3 / RFU, DTX4 / Fold change vs veh, DTX4 / RFU, TFCP2 / Fold change vs veh, TFCP2 / RFU, GMCL1 /// GMCL1P1 / Fold change vs veh, GMCL1 /// GMCL1P1 / RFU, AEBP2 / Fold change vs veh, AEBP2 / RFU, SNHG1 /// SNORD22 /// SNORD25 /// SNORD26 /// SNORD27 /// SNORD28 /// SNORD29 /// SNORD31 / Fold change vs veh, SNHG1 /// SNORD22 /// SNORD25 /// SNORD26 /// SNORD27 /// SNORD28 /// SNORD29 /// SNORD31 / Fold change (Aza/veh), C12orf56 (ProbeSet 11735607_a_at) / Fold change (ACY-1035/veh), C12orf56 (ProbeSet 11735607_a_at) / Fold change (Aza/veh), FGFR1OP (ProbeSet 11751329_s_at) / Fold change (ACY-1035/veh), FGFR1OP (ProbeSet 11751329_s_at) / Fold change (Aza/veh), VPS36 (ProbeSet 11739960_a_at) / Fold change (ACY-1035/veh), VPS36 (ProbeSet 11739960_a_at) / RFU SYPL1 (11715823_x_at) / Fold change /veh SYPL1 (11715823_x_at) / RFU IGFBP7 (11715501_s_at) / Fold change /veh IGFBP7 (11715501_s_at) / RFU REEP3 (11722064_at) / Fold change /veh REEP3 (11722064_at) / RFU IGLL1 (11728026_x_at) / Fold change /veh IGLL1 (11728026_x_at): dose or concentration left out as unconfirmed
Conditions: ProbeSet 11732370_a_at; LIST D

## Nc1ncn([C@@H]2O[C@H](CO)[C@@H](O)[C@H]2O)c(=O)n1 [azacitidine]
  RFU, CUX1: 199.77 RFU

Source: article PMC5218480 (PLoS ONE, 2017)
